Key:
[1] = Plasma stability test, monkey; assay type: in vitro ADME; settings: 37° C.
Description: (§1) The pH of the plasma was checked and recorded. Note: a.
(§2) The final concentration of solvent was 0.5%.
(§3) The assay was performed in duplicate. […] The tubes were mixed by vortex for 5 minutes.

[2] = tested on: HuPrime model LU0884 human lung cancer; assay: In vivo pharmacodynamics, lung cancer LU0884 PDX model; design: species or system BALB/c nude mice; settings: for T/C (%) / TGI (%) / Relative tumor volume (x ± S) / Tumor volume (x ± S): QWx3, i.v.; for Relative tumor volume (x ± S) / Tumor volume (x ± S): mean ± standard error; for Tumor volume (x ± S): in mm³ (unit assumed)
[3] = tested on: huH-1; assay: Cytotoxicity on hepatocellular carcinoma cell line huH-1; assay type: cell-based
Description: (§4) If not otherwise specified, IC50 values were measured by the following experimental methods:
(§5) a) Cells were plated for 24 hours, and then the compounds acted singly. 99 μL of growth medium was supplemented per well, and then 1 μL of 200× compound was added, gently shaken to ensure uniform mixing, and then placed in a 37° C., 5% CO2 incubator.
(§6) b) The cell plate was placed in the incubator for 72 hours.
(§7) b) 100 μL of CTG reagent (CelltiterGlo kit) was added to each well, the plate was placed in a rapid oscillator and shaken for 2 minutes, and then placed at room temperature for 30 minutes away from light.
(§8) The IC50 was calculated using GraphPad Prism 8 software and the IC50 (half inhibitory concentration) of the compounds was obtained using the following non-linear fitting formula: […]
(§9) Using the same experimental methods as described above, Compounds A, B and C were further tested for cytotoxicity against different hepatocellular carcinoma (HCC) cell lines SNU354, SNU886, MHCC97H and huH-1, and the results were shown in Table 2 below: […]

[4] = Plasma stability test, mouse; assay type: in vitro ADME; settings: 5 μM, 37° C.
Description: as §1, §2, §3

[5] = tested on: SNU354; assay: Cytotoxicity on hepatocellular carcinoma cell line SNU354; assay type: cell-based
Description: as §4, §5, §6, §7, §8, §9

[6] = Paclitaxel 20 mg/kg, Compound A 2.5, 5, 10 mg/kg

For O=[N+]([O-])c1ccc(C(OP(=O)(N2CC2)N2CC2)C(F)(F)F)cc1Oc1ccc(-c2ccc(F)cc2)c(F)c1 (racemic) [Compound A], the “Percentage remaining after 2 hours in plasma” value ([1]; Monkey plasma, 5 μM) was 79.20%, the “remained in plasma after 2 hours” value ([1]; monkey plasma) was 79.20% and the “T/C (%)” value ([2]; Compound A 2.5 mg/kg, Day 28) was 57.85%. The “TGI (%)” value ([2]; Compound A 2.5 mg/kg, Day 28) was 42.15%, the “Relative tumor volume (x ± S)” value ([2]; Compound A 2.5 mg/kg, Day 28) was 3.47 ± 0.56 and the “Tumor volume (x ± S)” value ([2]; Compound A 2.5 mg/kg, Day 28) was 360.43 ± 44.42. The “T/C (%)” value ([2]; Compound A 5 mg/kg, Day 28) was 43.62%, the “TGI (%)” value ([2]; Compound A 5 mg/kg, Day 28) was 56.38% and the “Relative tumor volume (x ± S)” value ([2]; Compound A 5 mg/kg, Day 28) was 2.61 ± 0.94. For the same compound, the “Tumor volume (x ± S)” value ([2]; Compound A 5 mg/kg, Day 28) was 291.60 ± 103.85, the “T/C (%)” value ([2]; Compound A 10 mg/kg, Day 28) was 63.02% and the “TGI (%)” value ([2]; Compound A 10 mg/kg, Day 28) was 36.98%. The “Relative tumor volume (x ± S)” value ([2]; Compound A 10 mg/kg, Day 28) was 3.78 ± 1.19, the “Tumor volume (x ± S)” value ([2]; Compound A 10 mg/kg, Day 28) was 434.80 ± 160.03 and the “Size of tumor volume” value ([2]; Group 4, Compound A 2.5 mg/kg, Day 0) was 109.86 mm^3. For the same compound, the “Size of tumor volume” value ([2]; Group 4, Compound A 2.5 mg/kg, Day 4) was 138.21 mm^3, the “Size of tumor volume” value ([2]; Group 4, Compound A 2.5 mg/kg, Day 7) was 177.96 mm^3 and the “Size of tumor volume” value ([2]; Group 4, Compound A 2.5 mg/kg, Day 11) was 194.38 mm^3. The “Size of tumor volume” value ([2]; Group 4, Compound A 2.5 mg/kg, Day 14) was 216.81 mm^3, the “Size of tumor volume” value ([2]; Group 4, Compound A 2.5 mg/kg, Day 18) was 261.94 mm^3 and the “Size of tumor volume” value ([2]; Group 4, Compound A 2.5 mg/kg, Day 21) was 287.79 mm^3. The “Size of tumor volume” value ([2]; Group 4, Compound A 2.5 mg/kg, Day 25) was 328.61 mm^3, the “Size of tumor volume” value ([2]; Group 4, Compound A 2.5 mg/kg, Day 28) was 360.43 mm^3 and the “Size of tumor volume” value ([2]; Group 5, Compound A 5 mg/kg, Day 0) was 110.67 mm^3. For the same compound, the “Size of tumor volume” value ([2]; Group 5, Compound A 5 mg/kg, Day 4) was 173.28 mm^3, the “Size of tumor volume” value ([2]; Group 5, Compound A 5 mg/kg, Day 7) was 221.81 mm^3 and the “Size of tumor volume” value ([2]; Group 5, Compound A 5 mg/kg, Day 11) was 229.45 mm^3. For the same compound, the “Size of tumor volume” value ([2]; Group 5, Compound A 5 mg/kg, Day 14) was 236.47 mm^3, the “Size of tumor volume” value ([2]; Group 5, Compound A 5 mg/kg, Day 18) was 260.75 mm^3 and the “Size of tumor volume” value ([2]; Group 5, Compound A 5 mg/kg, Day 21) was 271.59 mm^3. The “Size of tumor volume” value ([2]; Group 5, Compound A 5 mg/kg, Day 25) was 289.40 mm^3, the “Size of tumor volume” value ([2]; Group 5, Compound A 5 mg/kg, Day 28) was 291.60 mm^3 and the “Size of tumor volume” value ([2]; Group 6, Compound A 10 mg/kg, Day 0) was 109.04 mm^3. The “Size of tumor volume” value ([2]; Group 6, Compound A 10 mg/kg, Day 4) was 202.09 mm^3, the “Size of tumor volume” value ([2]; Group 6, Compound A 10 mg/kg, Day 7) was 257.40 mm^3 and the “Size of tumor volume” value ([2]; Group 6, Compound A 10 mg/kg, Day 11) was 283.55 mm^3. For the same compound, the “Size of tumor volume” value ([2]; Group 6, Compound A 10 mg/kg, Day 14) was 293.14 mm^3, the “Size of tumor volume” value ([2]; Group 6, Compound A 10 mg/kg, Day 18) was 343.92 mm^3 and the “Size of tumor volume” value ([2]; Group 6, Compound A 10 mg/kg, Day 21) was 359.85 mm^3. The “Size of tumor volume” value ([2]; Group 6, Compound A 10 mg/kg, Day 25) was 411.01 mm^3, the “Size of tumor volume” value ([2]; Group 6, Compound A 10 mg/kg, Day 28) was 434.80 mm^3 and the tolerability [2, 6] was “well tolerated”. For the same compound, the tumor inhibitory effect [2, 6] was “certain tumor inhibitory effects”, the IC50 ([3]; Homo sapiens, HuH-1) was 306 nM and the “ratio A/B” value ([3]; IC50 ratio, huH-1) was 1.19. The “ratio A/C” value ([3]; IC50 ratio, huH-1) was 1.14, the “Percentage remaining after 2 hours in plasma” value [4] was 38.19% and the IC50 ([5]; Homo sapiens, SNU-354) was 962 nM. The “ratio A/B” value ([5]; IC50 ratio) was 1.28 and the “ratio A/C” value ([5]; IC50 ratio) was 0.63.

From patent publication US20260159536A1, “AKR1C3-ACTIVATED DNA ALKYLATING AGENT, AND MEDICAL APPLICATION THEREOF” (ASCENTAWITS PHARMACEUTICALS, LTD., priority 2021, published 2026)
